Reference: PubChem BioAssay (NCI)
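Results reflect a 48-hour exposure of cells in 96-well plates to compound at five concentrations. At the GI50, growth is halved. TGI denotes the concentration required for complete inhibition of growth.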

Experiments:
Assay in all cases: NCI-60 cell line screen, 48 h
SF-539 CNS = tested on: SF-539 CNS
KM12 colon = tested on: KM12 colon
M14 melanoma = tested on: M14 melanoma
CCRF-CEM leukemia = tested on: CCRF-CEM leukemia
786-0 renal = tested on: 786-0 renal
SK-MEL-28 melanoma = tested on: SK-MEL-28 melanoma
RXF 393 renal = tested on: RXF 393 renal
HCT-116 colon = tested on: HCT-116 colon
OVCAR-8 ovarian = tested on: OVCAR-8 ovarian
DU-145 prostate = tested on: DU-145 prostate

Compound | GI50 (SF-539 CNS) [µM] | TGI (SF-539 CNS) [µM] | GI50 (KM12 colon) [µM] | TGI (KM12 colon) [µM] | GI50 (M14 melanoma) [µM] | TGI (M14 melanoma) [µM] | GI50 (CCRF-CEM leukemia) [µM] | TGI (CCRF-CEM leukemia) [µM] | GI50 (786-0 renal) [µM] | TGI (786-0 renal) [µM] | GI50 (SK-MEL-28 melanoma) [µM] | TGI (SK-MEL-28 melanoma) [µM] | GI50 (RXF 393 renal) [µM] | TGI (RXF 393 renal) [µM] | GI50 (HCT-116 colon) [µM] | TGI (HCT-116 colon) [µM] | GI50 (OVCAR-8 ovarian) [µM] | TGI (OVCAR-8 ovarian) [µM] | GI50 (DU-145 prostate) [µM] | TGI (DU-145 prostate) [µM]
COc1cc2c(/C=C3/C(=O)Nc4ccc(O)cc43)c(Cl)n(Cc3cc(OC)c(OC)c(OC)c3)c2cc1C | 2.24 | > 31.1 | 1.63 | > 30.5 | 1.93 | 51 | 1.38 | 10.9 | 1.6 | > 29.3 | 0.878 | 5.94 | 1.37 | 6.4 | 2.18 | > 33.2 | 3.05 | > 26.5 | 3.42 | > 30.3
Brc1ccc(C=NC23CC4CC(CC(C4)C2)C3)cc1 | – | > 100 | – | > 100 | – | > 100 | – | > 100 | – | > 100 | – | > 100 | – | > 100 | – | > 100 | – | > 100 | – | –
Cc1c[nH]c(=O)n(Cc2nnc(CCC(=O)c3nc4ccccc4[nH]3)o2)c1=O | 0.799 | 29.9 | 0.414 | > 33.1 | 0.492 | 3.12 | 0.459 | > 100 | 1.98 | 38.3 | 0.533 | > 100 | 0.697 | 3.83 | 0.251 | > 89.8 | 0.661 | > 100 | 0.337 | 1.21
CO/C=C(\Br)c1ccc2c(c1)OCO2 | – | > 100 | – | > 100 | – | > 100 | – | > 100 | – | > 100 | – | > 100 | – | > 100 | – | > 100 | – | > 100 | – | –
OCCN(CCO)c1nc(N2CCCCC2)c2nc(N(CCO)CCO)nc(N3CCCCC3)c2n1 | – | – | – | > 100 | – | > 100 | – | > 100 | – | > 100 | – | > 100 | – | – | – | > 100 | – | > 100 | – | > 100
O=c1oc2ccc(Cl)cc2c(=O)n1-c1ccc(F)cc1F | 1.68 | 8.67 | 2.72 | 10.2 | 0.558 | 5.03 | 3.32 | 18.1 | 3.07 | 10.5 | 1.52 | 10.5 | 1.76 | 5.72 | 2.53 | 10.4 | 2.66 | > 100 | 3.75 | 46.6
O=[N+]([O-])c1ccc(N=Nc2c(Cl)cc(O)cc2Cl)cc1 | 3.1 | 30.6 | 1.41 | 3.36 | 1.95 | 4.86 | 0.571 | 7.25 | 2.22 | 9.36 | 1.92 | 8.55 | 2.51 | 13.5 | 0.722 | 3.08 | 1.09 | 5.63 | 2.45 | 11.9
CCOC(=O)c1c2c(n3ccc(NC(=O)CCN4CCCCC4)cc13)C(=O)c1ncccc1C2=O | 0.292 | 2 | 1.22 | 2.76 | 0.17 | 1.76 | 1.18 | 3.68 | 0.124 | 2.32 | 0.668 | 2.38 | 0.256 | 2.4 | 0.106 | 2.21 | 1.28 | 3.71 | 1.2 | 2.54
O=C(CCCC(=O)N/N=C/c1cc(Cl)ccc1O)N/N=C\c1cc(Cl)ccc1O | 2.66 | 33.5 | 3.98 | > 100 | 3.21 | > 100 | 1.25 | 34.3 | 3.59 | > 100 | 3.68 | > 100 | – | – | 3.75 | > 100 | 2.86 | > 100 | 6.75 | > 100
O=C1c2ccccc2C(=O)c2c1oc1c2c(=O)[nH]c2ccc(Cl)cc21 | 0.229 | 0.566 | 0.447 | 3.02 | 0.397 | 1.53 | 0.403 | 4.66 | 0.223 | 0.543 | 0.339 | 1.23 | 0.21 | 0.577 | 0.307 | 1.09 | 0.389 | 2.29 | 0.279 | 0.781
CN(/N=C/c1ccccc1O)c1ccc2ccccc2n1 | – | 37.1 | – | 65.2 | – | > 100 | – | > 100 | – | 31.5 | – | > 100 | – | 90 | – | > 100 | – | > 100 | – | 41.3
C[N+](C)(C)C1CC([N+](C)(C)C)C2c3ccccc3C21 (stereo not given) | – | > 100 | – | > 100 | – | > 100 | – | > 100 | – | > 100 | – | > 100 | – | > 100 | – | > 100 | – | > 100 | – | –
O=C1/C(=C/c2ccc(F)cc2)CN(C(=O)C(Cl)Cl)C/C1=C\c1ccc(F)cc1 | 0.269 | 0.791 | 0.107 | 0.336 | 0.249 | 0.758 | 0.136 | > 24.2 | 0.213 | 0.499 | 0.257 | 0.666 | 0.445 | 0.968 | 0.0673 | 0.215 | 0.295 | 1.64 | 0.671 | 1.74
O=C(O)CN1C(=O)CN=C(c2ccccn2)c2cc(Cl)ccc21 | – | > 100 | – | > 100 | – | > 100 | – | – | – | > 100 | – | > 100 | – | > 100 | – | > 100 | – | > 100 | – | > 100
O=C(Nc1ccccc1Cl)c1ccc(NC2=C(Cl)C(=O)N(C3CCCCC3)C2=O)cc1 | 27.3 | 58.5 | 16.9 | 35.7 | 11.7 | 42.1 | 8.29 | 33.5 | 9.64 | 30.2 | 17.6 | 49.6 | – | – | 5.51 | 36.1 | 2.99 | 18.5 | 6.78 | 23.9
